Bridge positions count the residues as written; N and C are the ends. Ends that are not written are not given here. Peptide text beside a SMILES is read from it.
The molecules below were run against T1, rat ROMK (Rattus norvegicus, UniProt P35560) (assay: Whole-cell patch-clamp of ROMK currents in 208–4 cells). Settings: blockade at 1 μM estimated from fitted Hill curve (four parameters), whole-cell conductance, n = 3–6.
T1 construct: expressed in transfected cells; host or cells: 293T cell line 208-4 (lentiviral transduction, GFP coexpressed)
T1 sequence (P35560 1-391): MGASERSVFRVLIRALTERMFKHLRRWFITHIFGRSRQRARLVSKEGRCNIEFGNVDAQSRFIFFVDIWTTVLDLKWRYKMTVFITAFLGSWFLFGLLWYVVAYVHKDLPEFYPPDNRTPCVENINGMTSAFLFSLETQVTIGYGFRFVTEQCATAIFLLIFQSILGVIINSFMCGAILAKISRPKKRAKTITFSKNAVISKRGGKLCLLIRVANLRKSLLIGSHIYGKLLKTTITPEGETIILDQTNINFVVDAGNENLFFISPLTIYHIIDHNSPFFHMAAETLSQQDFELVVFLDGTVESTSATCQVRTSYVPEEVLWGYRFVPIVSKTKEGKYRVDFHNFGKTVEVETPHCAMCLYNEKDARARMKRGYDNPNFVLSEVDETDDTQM
Assay type: cell-based
From the text: The cDNAs for rat ROMK and mouse GIRK1, 2, and 4 were generously donated by Drs Mikio Hayashi (Kansai Medical University) and David Weaver (Vanderbilt University). The ROMK channels were stably expressed by a cell line, 208–4, which was transduced with lentiviral vectors coexpressing the channel and green fluorescent protein (GFP) as described previously. The GIRK genes, cloned in a pCMV6 plasmid (Origene Technologies Inc, Rockville, MD), were transiently expressed in 293T cells with calcium phosphate transfection. GIRK channel currents were recorded 24 h after transfection.
Cells grown on small cover glasses (3 × 18 mm) were placed in a recording chamber. Whole-cell currents were recorded in Tyrode solution using an Axopatch 200B amplifier (Axon Instruments, Foster City, CA) at 25°C. Tyrode solution contained (in mM): NaCl 140, KCl 5.4, NaH2PO4 0.33, CaCl2 2, MgCl2 1, HEPES 5, and glucose 5.5 (pH 7.4 adjusted with NaOH). High K^+ Tyrode solution (KCL 50 mM, NaCl 95 mM, and others were the same as standard Tyrode solution) was used for the recording of GIRK channels. Patch pipettes pulled from borosilicate glass (Narishige, Tokyo, Japan) were filled with an internal solution containing (in mM): K-aspartate 66, KCl 71.5, KH2PO4 1, EGTA 5, HEPES 5, and MgATP 3 (pH 7.4 adjusted with KOH). Recordings were digitized at 10 kHz, and low-pass filtered at 2 kHz. ROMK, Kir2.1, and GIRK currents were evoked with step pulses of 400 msec from -150 mV to 10 mV in 10 mV increments from a holding potential of -70 mV. Whole-cell currents were recorded 60 sec after the peptide application and those from 100 to 300 msec of the step pulses were averaged. Liquid junction potential or capacitive transient was not corrected or compensated. Whole-cell conductance was calculated as the slope of the current-voltage (I-V) relationship from -140 mV to -100 mV and normalized to the initial value (0 μM TPN), in which BaCl2-resistant current was subtracted and indicted as a percentage.

TPN 14–21 [Peptide 17] was tested, and the “Activity (ROMK channel blocking activity, percentage of blockade at 1 μM)” value was “- (-, <20%)”.
In the case of TPN 13–20 [Peptide 16], the “Activity (ROMK channel blocking activity, percentage of blockade at 1 μM)” value is reported as “- (-, <20%)”.

Same assay, conditions: blockade at 1 μM estimated from fitted Hill curve (four parameters), whole-cell conductance, n = 3–6, read-out: Activity (ROMK channel blocking activity, percentage of blockade at 1 μM)

First: CC[C@H](C)[C@@H]1NC(=O)[C@H](CCCNC(=N)N)NC(=O)[C@H](CCCNC(=N)N)NC(=O)[C@H](CC(N)=O)NC(=O)[C@@H]2CSSC[C@@H](C(=O)NCC(=O)N[C@@H](CCCCN)C(=O)N[C@@H](CCCCN)C(N)=O)NC(=O)[C@H](CCCCN)NC(=O)[C@H](CCCCN)NC(=O)[C@H](Cc3c[nH]c4ccccc34)NC(=O)[C@H](CSSC[C@H](NC(=O)[C@H](CC(C)C)NC(=O)[C@H](C)N)C(=O)N[C@@H](C)C(=O)N2)NC(=O)[C@H](CCC(N)=O)NC(=O)[C@H](Cc2c[nH]cn2)NC(=O)[C@@H]2CCCN2C(=O)[C@H]([C@@H](C)CC)NC1=O [Peptide 56, TPN-RQ(N4A)] (H-ALCACNRRIIPHQCWKKCGKK-NH2; disulfide 3-14, 5-18)
Second: CC[C@H](C)[C@@H]1NC(=O)[C@H](CCCNC(=N)N)NC(=O)[C@H](CCCNC(=N)N)NC(=O)[C@H](CC(N)=O)NC(=O)[C@H](CO)NC(=O)[C@H](CC(N)=O)NC(=O)[C@@H](N)CSSC[C@@H](C(=O)N[C@@H](Cc2c[nH]c3ccccc23)C(=O)N[C@@H](CCCCN)C(N)=O)NC(=O)[C@H](CCC(N)=O)NC(=O)[C@H](CCCCN)NC(=O)[C@@H]2CCCN2C(=O)[C@H]([C@@H](C)CC)NC1=O [Peptide 42, TPN-RQ 3-16(C5S/H12K)] (H-CNSNRRIIPKQCWK-NH2; disulfide 1-12)
The inhibition at 1 µM of the first is higher: 60 to 80% for the first, under 20% for the second.

`CC[C@H](C)[C@@H]1NC(=O)[C@H](CCCNC(=N)N)NC(=O)[C@H](CCCNC(=N)N)NC(=O)[C@H](CC(N)=O)NC(=O)[C@H](CO)NC(=O)[C@H](CC(N)=O)NC(=O)[C@@H](N)CSSC[C@@H](C(=O)N[C@@H](Cc2c[nH]c3ccccc23)C(=O)N[C@@H](CCCCN)C(N)=O)NC(=O)[C@H](CCC(N)=O)NC(=O)[C@H](Cc2c[nH]cn2)NC(=O)[C@@H]2CCCN2C(=O)[C@H]([C@@H](C)CC)NC1=O` [Peptide 41, TPN-RQ 3-16(C5S)] (H-CNSNRRIIPHQCWK-NH2; disulfide 1-12) and `CC[C@H](C)[C@@H]1NC(=O)[C@H](CCCNC(=N)N)NC(=O)[C@H](CCCNC(=N)N)NC(=O)[C@H](CC(N)=O)NC(=O)[C@@H](NC(=O)[C@H](CC(N)=O)NC(=O)[C@H](CO)NC(=O)[C@H](CC(C)C)NC(=O)[C@H](C)N)CSSC[C@@H](C(=O)NCC(=O)N[C@@H](CCCCN)C(=O)N[C@@H](CCCCN)C(N)=O)NC(=O)[C@H](CCCCN)NC(=O)[C@H](CCCCN)NC(=O)[C@H](Cc2c[nH]c3ccccc23)NC(=O)[C@H](CO)NC(=O)[C@H](CCC(N)=O)NC(=O)[C@H](Cc2c[nH]cn2)NC(=O)[C@@H]2CCCN2C(=O)[C@H]([C@@H](C)CC)NC1=O` [Peptide 50, TPN-RQ(C3S/C14S)] (H-ALSNCNRRIIPHQSWKKCGKK-NH2; disulfide 5-18) cannot be ordered by inhibition at 1 µM: under 20% for the first, under 20% for the second.

“RRIAPHQK-NH2 [Peptide 26, TPN-RQ 7-13(I10A) + K]” and RIIIPHQC-NH2 [Peptide 18, TPN-Q 7–14] cannot be ordered by inhibition at 1 µM: under 20% for the first, under 20% for the second.

Compared with `CC[C@H](C)[C@@H]1NC(=O)[C@H](CCCNC(=N)N)NC(=O)[C@H](CCCNC(=N)N)NC(=O)[C@H](CC(N)=O)NC(=O)[C@@H]2CSSC[C@@H](C(=O)NCC(=O)N[C@@H](CCCCN)C(=O)N[C@@H](CCCCN)C(N)=O)NC(=O)[C@H](CCCCN)NC(=O)[C@H](CCCCN)NC(=O)[C@H](Cc3c[nH]c4ccccc34)NC(=O)[C@H](CSSC[C@H](NC(=O)[C@H](CC(C)C)NC(=O)[C@H](C)N)C(=O)N[C@@H](CC(N)=O)C(=O)N2)NC(=O)[C@H](CCC(N)=O)NC(=O)[C@H](C)NC(=O)[C@@H]2CCCN2C(=O)[C@H]([C@@H](C)CC)NC1=O` [Peptide 63, TPN-RQ(H12A)] (H-ALCNCNRRIIPAQCWKKCGKK-NH2; disulfide 3-14, 5-18), “RRIIPAQK-NH2 [Peptide 28, TPN-RQ 7-13(H12A) + K]” is lower in inhibition at 1 µM: 40 to 60% for the first, under 20% for the second.
